This passage reports IC50 and inhibition in vivo results from US5049559A, “Thieno-triazolo-diazepine derivatives useful as anti-ischemic agents” (priority 1989, dated 1991).

The test system of test [1] is platelet aggregation induced by PAF. As to the kind of experiment: Inhibition of platelet aggregation induced by PAF. In kind it is cell-based. Particulars: Oryctolagus cuniculus, male New Zealand rabbits, Table I. How it is done:
1) Inhibition of platelet aggregation induced by PAF
This experimentation was conducted according to the method of R. KINLOUGH. RATHBONE, J. P. CAZENAVE, M. PACKHAM and F. MUSTARD, Lab. Invest. 48, 98, 1980. In this test, New Zealand rabbits were used (male New Zealand rabbits of an average weight of 5 kg).
The determinations are made on a chrono-log Coultronics aggregometer, at […] coupled with a graphic recorder; the results of these determinations (in molecular concentration) are reported on the table I on the central column.

The next test addresses benzodiazepine receptors. Kind of test: Inhibition of the binding to benzodiazepine receptors. Particulars: rat brains, 1 hour 30 minutes at 4° C., tracers 3H-RO-15-1788 and 3H-RO-5-4864, Table I, read-out: BDZ receptors. The text has this:
2) Inhibition of the binding to benzodiazepine receptors
The interest of the previous experimentation depends on the results obtained in this experimentation: as a compound of the invention has a benzodiazepine like structure, it is important to check whether the specific benzodiazepine activity would not appear at the dose where platelet aggregation was inhibited.
Therefore, this experimentation has been conducted according to the method of MOHLER H. and RICHARD J. G. Agonist and antagonist benzodiazepine receptor interaction in vitro, Nature, vol. 294, 763-765, 1981.
This experimentation was conducted on rat brains incubated 1 hour 30 minutes at 4° C. using ^3 H-RO-15-1788 and ^3 H-RO-5-4864 (NEN) as tracers and […] and RO-5-4864 as reference antagonists.
The results in molecular concentration are reported in the table I, on the right hand column.

Test [2] in a line: Global ischemia on gerbils. It counts as in vivo. Conditions: Meriones unguiculatus, 168 h, carotides clamped 10 minutes, hippocampes one week later, 3H-PK 11195, percentage of protection compared to control. How it is done:
3) Global ischemia on gerbils For this test, males gerbils were anaesthetized with brietal at the doses of 35 mg/kg IP; thereafter, both carotides were clamped for 10 minutes, then the clamping was released. Treated animals received each 10 mg/kg of the compounds of one of the examples. One week later, the animals were killed and both hippocampes were taken, weighed and frozen at -80° C. After crushing with 1 ml of TRIS-HCl pH 7.4 for 30 seconds, aliquots of each 50 μl of this preparation were incubed in each 1 ml of TRIS-HCl buffer containing ^3 H-PK 11195 at 2 nM (90 Ci/mmole, NENE, Germany) for 1 hour at 25° C. For each preparation, 3 determinations were made. The density of omega 3 sites (marked by the specific ^3 H-PK 11195 marker) are expressed in f-moles of PK 11195/mg of fresh tissues and converted in percentage of protection compared to control.

On to `Cc1nnc2n1-c1sc3c(c1C(c1ccccc1Cl)=NC2)CCN(C(=S)CSc1ccc(C(C)(C)C)cc1)C3` [Example 18, 6-(2-chlorophenyl)-9-(4-t.butylphenylthiomethyl-thiocarbonyl)-7,8,9, 10-tetrahydro-1-methyl-4H-pyrido [4',3':4,5] thieno [3,2-f] 1,2,4-triazolo[4,3-a] 1,4-diazepine], for which the IC50 in test [1] worked out at 23 nM; on benzodiazepine receptors, 44100 nM. Testing at 10 mg/kg in test [2] gave an inhibition in vivo of 12.6%.
The like results for `Cc1nnc2n1-c1sc3c(c1C(c1ccccc1Cl)=NC2)CCN(C(=O)CSc1ccccc1C(F)(F)F)C3` [Example 19, 6-(2-chlorophenyl)-9-(2-trifluoromethylphenylthiomethylcarbonyl)-7,8,9, 10-tetrahydro-1-methyl-4H-pyrido [4',3':4,5] thieno [3,2-f] 1,2,4-triazolo[4,3-a] 1,4-diazepine] were, in that order, 6.36 nM, 270 nM and 45.6%.
For `Cc1nnc2n1-c1sc3c(c1C(c1ccccc1Cl)=NC2)CCN(C(=S)CSc1ccccc1C(F)(F)F)C3` [Example 20, 6-(2-chlorophenyl)-9-(2-trifluoromethylphenylthiomethylthiocarbonyl)-7,8,9, 10-tetrahydro-1-methyl-4H-pyrido [4',3':4,5] thieno [3,2-f] 1,2,4-triazolo [4,3-a] 1,4-diazepine], in that order: 146 nM, 1600 nM and 32.7%.
For the molecule `Cc1nnc2n1-c1sc3c(c1C(c1ccccc1Cl)=NC2)CCN(C(=O)CSc1cccc(C(F)(F)F)c1)C3` [Example 21, 6-(2-chlorophenyl)-9-(3-trifluoromethylphenylthiomethylcarbonyl)-7,8,9, 10-tetrahydro-1-methyl-4H-pyrido [4',3':4,5] thieno [3,2-f] 1,2,4-triazolo[4,3-a] 1,4-diazepine], the IC50 in test [1] was 8.66 nM; at benzodiazepine receptors it was 810 nM. Besides, the inhibition in vivo – broadly, the relative decrease from the control value, in per cent – at 10 mg/kg in test [2] was determined as 34.1%.
The like results for `Cc1nnc2n1-c1sc3c(c1C(c1ccccc1Cl)=NC2)CCN(C(=S)CSc1cccc(C(F)(F)F)c1)C3` [Example 22, 6-(2-chlorophenyl)-9-(3-trifluoromethylphenylthiomethylthiocarbonyl)-7,8,9, 10-tetrahydro-1-methyl-4H-pyrido [4',3':4,5] thieno [3,2-f] 1,2,4-triazolo [4,3-a] 1,4-diazepine] were, in that order, 8.18 nM, 610 nM and 48.1%.
For `Cc1nnc2n1-c1sc3c(c1C(c1ccccc1Cl)=NC2)CCN(C(=O)CSc1ccc(C(F)(F)F)cc1)C3` [Example 23, 6-(2-chlorophenyl)-9-(4-trifluoromethylphenylthiomethylcarbonyl)-7,8,9, 10-tetrahydro-1-methyl-4H-pyrido [4',3':4,5] thieno [3,2-f] 1,2,4-triazolo[4,3-a] 1,4-diazepine], in that order: 12.4 nM, 1200 nM and 37.5%.
The like results for `Cc1nnc2n1-c1sc3c(c1C(c1ccccc1Cl)=NC2)CCN(C(=S)CSc1ccc(C(F)(F)F)cc1)C3` [Example 24, 6-(2-chlorophenyl)-9-(4-trifluoromethylphenylthiomethylthiocarbonyl)-7,8,9, 10-tetrahydro-1-methyl-4H-pyrido [4',3':4,5] thieno [3,2-f] 1,2,4-triazolo [4,3-a] 1,4-diazepine] were, in that order, 32.7 nM, 3300 nM and 38.7%.
As for `Cc1nnc2n1-c1sc3c(c1C(c1ccccc1Cl)=NC2)CCN(C(=O)CSc1ccc(F)cc1)C3` [Example 25, 6-(2-chlorophenyl)-9-(4-fluorophenylthiomethyl-carbonyl)-7,8,9, 10-tetrahydro-1-methyl-4H-pyrido [4',3':4,5] thieno [3,2-f] 1,2,4-triazolo[4,3-a] 1,4-diazepine], the IC50 was 11.3 nM in test [1] and 630 nM on benzodiazepine receptors. This molecule also displayed an inhibition in vivo at 10 mg/kg in test [2] of 14.7%.
